# Assay results published in patent US20130310256A1, “HERBICIDAL COMPOSITIONS COMPRISING 4-AMINO-3-CHLORO-5-FLUORO-6-(4-CHLORO-2-FLUORO-3-METHOXYPHENYL) PYRIDINE-2-CARBOXYLIC ACID OR A DERIVATIVE THEREOF AND VLCFA AND LIPID SYNTHESIS INHIBITING HERBICIDES” (DOW AGROSCIENCES LLC, priority 2008, published 2013).
# Legend:
# Assay in all cases: Example III: post-emergence foliar-applied weed control in cereal crops, greenhouse
# Conditions in all cases: 21 DAA
# CIRAR = type: in vivo, Cirsium arvense (L.) Scop.
# Experimental: (§1) Seeds of the desired test plant species were planted in Sun Gro MetroMix® 306 planting mixture, which typically has a pH of 6.0 to 6.8 and an organic matter content of about 30 percent, in plastic pots with a surface area of 103.2 square centimeters (cm^2). When required to ensure good germination and healthy plants, a fungicide treatment and/or other chemical or physical treatment was applied. The plants were grown for 7-36 days in a greenhouse with an approximate 14 hour photoperiod which was maintained at about 18° C. during the day and 17° C. during the night. Nutrients and water were added on a regular basis and supplemental lighting was provided with overhead metal halide 1000-Watt lamps as necessary. The plants were employed for testing when they reached the second or third true leaf stage.
# (§2) Treatments consisted of the benzyl ester of 4-amino-3-chloro-5-fluoro-6-(4-chloro-2-fluoro-3-methoxy-phenyl)pyridine-2-carboxylic acid (Compound A), formulated as an SC (suspension concentrate), and a second cereal herbicide alone and in combination.
# (§3) Measured aliquots of the benzyl ester of 4-amino-3-chloro-5-fluoro-6-(4-chloro-2-fluoro-3-methoxy-phenyl)pyridine-2-carboxylic acid (Compound A) were placed in 25 milliliter (mL) glass vials and diluted in a volume of 1.25% (v/v) Agri-dex crop oil concentrated to obtain stock solutions. Compound requirements are based upon a 12 mL application volume at a rate of 187 liters per hectare (L/ha). Spray solutions of the second cereal herbicide and experimental compound mixtures were prepared by adding the stock solutions to the appropriate amount of dilution solution to form 12 mL spray solution with active ingredients in two- and three-way combinations. Formulated compounds were applied to the plant material with an overhead Mandel track sprayer equipped with an 8002E nozzle calibrated to deliver 187 L/ha over an application area of 0.503 square meters (m^2) at a spray height of 18 inches (46 cm) above average plant canopy. Control plants were sprayed in the same manner with the solvent blank.
# (§4) The treated plants and control plants were placed in a greenhouse as described above and watered by sub-irrigation to prevent wash-off of the test compounds. After 20-22 days, the condition of the test plants as compared with that of the control plants was determined visually and scored on a scale of 0 to 100 percent where 0 corresponds to no injury and 100 corresponds to complete kill.
# (§5) Colby's equation was used to determine the herbicidal effects expected from the mixtures (Colby, S. R. 1967. Calculation of the synergistic and antagonistic response of herbicide combinations. Weeds 15:20-22.).
# GALAP = type: in vivo, Galium aparine L.
# Experimental: as §1, §2, §3, §4, §5
# PAPRH = type: in vivo, Papaver rhoeas L.
# Experimental: as §1, §2, §3, §4, §5
# SINAR = type: in vivo, Sinapis arvensis L.
# Experimental: as §1, §2, §3, §4, §5
# STEME = type: in vivo, Stellaria media (L.) Vill.
# Experimental: as §1, §2, §3, §4, §5
structure (smiles),measurement,setting,value
"COc1c(Cl)ccc(-c2nc(C(=O)OCc3ccccc3)c(Cl)c(N)c2F)c1F [Compound A Benzyl Ester, benzyl ester of 4-amino-3-chloro-5-fluoro-6-(4-chloro-2-fluoro-3-methoxy-phenyl)pyridine-2-carboxylic acid]",Visual Weed Control CIRAR Obs,CIRAR; 2.5 gai/ha,48%
same,Visual Weed Control CIRAR Obs,CIRAR; 5 gai/ha,39%
same,Visual Weed Control CIRAR Obs,CIRAR; 10 gai/ha,60%
same,Visual Weed Control GALAP Obs,GALAP; 2.5 gai/ha,55%
same,Visual Weed Control GALAP Obs,GALAP; 5 gai/ha,66%
same,Visual Weed Control GALAP Obs,GALAP; 10 gai/ha,77%
same,Visual Weed Control PAPRH Obs,PAPRH; 2.5 gai/ha,48%
same,Visual Weed Control PAPRH Obs,PAPRH; 5 gai/ha,28%
same,Visual Weed Control PAPRH Obs,PAPRH; 10 gai/ha,35%
same,Visual Weed Control SINAR Obs,SINAR; 2.5 gai/ha,70%
same,Visual Weed Control SINAR Obs,SINAR; 5 gai/ha,73%
same,Visual Weed Control STEME Obs,STEME; 2.5 gai/ha,25%
same,Visual Weed Control STEME Obs,STEME; 5 gai/ha,25%
same,Visual Weed Control STEME Obs,STEME; 10 gai/ha,27%
